Experiment [1] has as its target T1, PDGFRβ (Homo sapiens, UniProt P09619).
T1 construct: expressed in transfected cells; host or cells: porcine aorta endothelial (PAE)-PDGFRβ cells
In words: PAE-PDGFRβ phosphorylation in PAE-PDGFRB cells assay. The experiment is classed as cell-based. As to the method:
PAE-PDGFRβ Phosphorylation in PAE-PDGFRB Cells Assay
This assay determines the ability of a test compound to inhibit the autophosphorylation of PDGFRβ in porcine aorta endothelial (PAE)-PDGFRβ cells. PAE cells that overexpress human PDGFRβ were used in this assay. The cells were cultured in Ham's F12 media supplemented with 10% fetal bovine serum (FBS) and 400 ug/ml G418. Twenty thousands cells were seeded in each well of a 96-well plate in 50 μL of growth media and allowed to attach for 6 hours at 37° C. Cells were then exposed to the starvation media (Ham's F12 media supplemented with 0.1% FBS) for 16 hours. After the starvation period was over, 10 μL of test agent in 5% DMSO in starvation media were added to the test wells and 10 μL of the vehicle (5% DMSO in starvation media) were added into the control wells. The final DMSO concentration in each well was 0.5%. Plates were incubated at 37° C. for 1 hour and the cells were then stimulated with 1 μg/mL PDGF-BB (R & D System) in the presence of 2 mM Na3VO4 for 8 minutes. The cells were washed once with 1 mm Na3VO4 in HBSS and lysed by adding 50 μL per well of lysis buffer. One hundred μL of dilution buffer were then added to each well and the diluted cell lysate was transferred to a 96-well goat ant-rabbit coated plate (Pierce), which was pre-coated with Rabbit anti Human PDGFRβ antibody (Santa Cruz). The plates were incubated at room temperature for 2 hours and washed seven times with 1% Tween 20 in PBS. HRP-PY20 (Santa Cruz) was diluted and added to the plate for a 30-minute incubation. Plates were then washed again and TMB peroxidase substrate (Kirkegaard & Perry) was added for a 10-minute incubation. One hundred μL of 0.09 N H2SO4 was added into each well of the 96-well plate to stop the reaction. Phosphorylation status was assessed by spectrophotometer reading at 450 nm. IC50 values were calculated by curve fitting using a four-parameter analysis.

For experiment [2], the target named is T2, unphosphorylated VEGF-R2Δ50 (FLVK) (Homo sapiens, UniProt P35968, DEL940-989/E990V).
T2 construct: VEGF-R2Δ50 contains residues 806–939 and 990–1171; made in house; host or cells: baculovirus/insect cell system
T2 sequence (P35968 with tags, fused parts or gaps DEL940-989/E990V limits assumed): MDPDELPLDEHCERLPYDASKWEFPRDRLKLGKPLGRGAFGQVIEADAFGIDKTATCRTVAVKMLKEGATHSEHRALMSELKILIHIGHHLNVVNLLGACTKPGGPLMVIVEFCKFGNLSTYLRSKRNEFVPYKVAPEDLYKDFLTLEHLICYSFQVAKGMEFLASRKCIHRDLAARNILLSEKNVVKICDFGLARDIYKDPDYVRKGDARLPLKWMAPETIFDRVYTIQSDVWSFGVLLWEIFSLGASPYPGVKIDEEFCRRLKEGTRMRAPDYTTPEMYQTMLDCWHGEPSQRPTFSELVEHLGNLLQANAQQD
Nature of the experiment: VEGF-R2 coupled spectrophotometric assay, unphosphorylated VEGF-R2Δ50 (FLVK). As to conditions: for inhibition at 0.1 µM: percent inhibition at 100 nM, library amides from Example 101 (R101), crude mixtures in DMSO, read-out: FLVK (% @ 100 nM); for inhibition at 0.05 µM: 50 nM compound, read-out: FLVK (% inh @ 50 nM); for inhibition at 0.05 µM / Ki: unphosphorylated VEGF-R2Δ50. The experiment is classed as biochemical. An excerpt:
VEGF-R2 Construct for Assay:
This construct determines the ability of a test compound to inhibit tyrosine kinase activity. A construct (VEGF-R2Δ50) of the cytosolic domain of human vascular endothelial growth factor receptor 2 (VEGF-R2) lacking the 50 central residues of the 68 residues of the kinase insert domain was expressed in a baculovirus/insect cell system. Of the 1356 residues of full-length VEGF-R2, VEGF-R2Δ50 contains residues 806–939 and 990–1171, and also one point mutation (E990V) within the kinase insert domain relative to wild-type VEGF-R2. Autophosphorylation of the purified construct was performed by incubation of the enzyme at a concentration of 4 μM in the presence of 3 mM ATP and 40 mM MgCl2 in 100 mM HEPES, pH 7.5, containing 5% glycerol and 5 mM DTT, at 4° C. for 2 h. […] See Parast et al., Biochemistry, 37, 16788–16801 (1998).
Coupled Spectrophotometric (FLVK-P) Assay
The production of ADP from ATP that accompanies phosphoryl transfer was coupled to oxidation of NADH using phosphoenolpyruvate (PEP) and a system having pyruvate kinase (PK) and lactic dehydrogenase (LDH). The oxidation of NADH was monitored by following the decrease of absorbance at 340 nm (e340=6.22 cm^−1 mM^−1) using a Beckman DU 650 spectrophotometer. Assay conditions for phosphorylated VEGF-R2Δ50 (indicated as FLVK-P in the tables below) were the following: 1 mM PEP; 250 μM NADH; 50 units of LDH/mL; 20 units of PK/mL; 5 mM DTT; 5.1 mM poly(E4Y1); 1 mM ATP; and 25 mM MgCl2 in 200 mM HEPES, pH 7.5. Assay conditions for unphosphorylated VEGF-R2Δ50 (indicated as FLVK in the tables) were the following: 1 mM PEP; 250 μM NADH; 50 units of LDH/mL; 20 units of PK/mL; 5 mM DTT; 20 mM poly(E4Y1); 3 mM ATP; and 60 mM MgCl2 and 2 mM MnCl2 in 200 mM HEPES, pH 7.5. Assays were initiated with 5 to 40 nM of enzyme. Ki values were determined by measuring enzyme activity in the presence of varying concentrations of test compounds. […] The binding inhibitions were fitted to equation as described by Morrison. The data were analyzed using Enzyme Kinetic and Kaleidagraph software.

Setting [3] is: library amides from Example 101 (R101), crude mixtures in DMSO, read-out: PAE PDGFR autophos IC50.
[4] abbreviates: PAE cells overexpressing human PDGFRβ, PDGF-BB stimulated, read-out: PAE PDGFR autophos IC50 (nM) AVG.

Read-outs that look alike come from different tables or passages of the source.

T1 sequence (P09619 33-1106): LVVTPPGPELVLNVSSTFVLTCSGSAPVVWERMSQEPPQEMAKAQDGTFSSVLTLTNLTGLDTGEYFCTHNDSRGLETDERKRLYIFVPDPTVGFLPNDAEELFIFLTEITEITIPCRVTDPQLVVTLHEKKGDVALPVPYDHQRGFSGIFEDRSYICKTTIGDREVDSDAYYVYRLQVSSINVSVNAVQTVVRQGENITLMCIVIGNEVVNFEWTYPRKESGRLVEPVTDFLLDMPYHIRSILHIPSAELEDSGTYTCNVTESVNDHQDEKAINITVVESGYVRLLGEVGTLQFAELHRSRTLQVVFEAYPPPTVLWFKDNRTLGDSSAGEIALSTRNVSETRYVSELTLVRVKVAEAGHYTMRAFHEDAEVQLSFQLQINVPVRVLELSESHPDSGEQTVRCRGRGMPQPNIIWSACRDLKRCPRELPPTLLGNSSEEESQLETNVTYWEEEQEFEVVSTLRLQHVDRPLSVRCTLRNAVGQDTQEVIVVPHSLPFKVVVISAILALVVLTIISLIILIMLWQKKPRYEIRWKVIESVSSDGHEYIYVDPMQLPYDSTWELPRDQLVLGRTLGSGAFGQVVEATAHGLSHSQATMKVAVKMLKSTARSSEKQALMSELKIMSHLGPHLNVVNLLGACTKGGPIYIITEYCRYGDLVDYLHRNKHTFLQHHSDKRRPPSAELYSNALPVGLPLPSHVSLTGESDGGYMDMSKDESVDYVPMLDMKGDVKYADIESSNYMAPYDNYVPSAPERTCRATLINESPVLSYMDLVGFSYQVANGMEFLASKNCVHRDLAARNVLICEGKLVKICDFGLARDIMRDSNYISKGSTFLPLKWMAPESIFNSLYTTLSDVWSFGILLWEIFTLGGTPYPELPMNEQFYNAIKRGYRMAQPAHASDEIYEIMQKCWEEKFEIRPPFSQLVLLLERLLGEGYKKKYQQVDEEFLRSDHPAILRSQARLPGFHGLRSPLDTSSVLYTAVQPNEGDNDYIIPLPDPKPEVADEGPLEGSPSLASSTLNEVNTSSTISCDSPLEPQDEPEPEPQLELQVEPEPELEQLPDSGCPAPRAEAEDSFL

In the case of `COC(=O)[C@H](Cc1c[nH]cn1)NC(=O)c1c(C)oc2cc(Oc3ccnc4ccsc34)ccc12`, the IC50 in experiment [1] (setting [3]) worked out at 49 nM. The inhibition at 0.1 µM in experiment [2] was determined as 52%.

With `COC(=O)C1CN1C(=O)c1c(C)oc2cc(Oc3ccnc4ccsc34)ccc12` (stereo not shown), in experiment [1] (setting [3]), the IC50 was above 100 nM. For the same molecule, the inhibition at 0.1 µM in experiment [2] is 51%.

For `Cc1oc2cc(Oc3ccnc4ccsc34)ccc2c1C(=O)Nc1cc[nH]n1`, in experiment [1] (setting [3]), the IC50 is above 100 nM. Further, in experiment [2], the inhibition at 0.1 µM was found to be 91%.

For `CNC(=O)c1c(C)n(C)c2cc(Oc3ccnc4cc(C(=O)N5CC[C@@H](N(C)C)C5)sc34)ccc12` [Example 27, 6-[(2-{[(3R)-3-(Dimethylamino)pyrrolidin-1-yl]carbonyl}thieno[3,2-b]pyridin-7-yl)oxy]-N,1,2-trimethyl-1H-indole-3-carboxamide], the half-inhibitory concentration (IC50) in experiment [1] (setting [4]) was 205 nM. Besides, in experiment [2], the inhibition at 0.05 µM came out at 13% and the inhibition constant (Ki) was determined as 96 nM.

In the case of `CNC(=O)c1c(C)n(C)c2cc(Oc3ccnc4cc(C(=O)N(C)CCCN(C)C)sc34)ccc12` [Example 32, N-[3-(Dimethylamino)propyl]-7-({1,2-dimethyl-3-[(methylamino)carbonyl]-1H-indol-6-yl}oxy)-N-methylthieno[3,2-b]pyridine-2-carboxamide], in experiment [1] (setting [4]), the IC50 stood at 29.2 nM. Further, in experiment [2], the inhibition at 0.05 µM is 22% and the Ki worked out at 39.4 nM.

With `CNC(=O)c1c(C)n(C)c2cc(Oc3ccnc4cc(C(=O)N5CC[C@@H](N(C)C(=O)OC(C)(C)C)C5)sc34)ccc12` [Example 34, tert-Butyl-(3R)-1-{[7-({1,2-dimethyl-3-[(methylamino)carbonyl]-1H-indol-6-yl}oxy)thieno[3,2-b]pyridin-2-yl]carbonyl}pyrrolidin-3-yl(methyl)carbamate], the 50% inhibitory concentration (IC50) in experiment [1] (setting [4]) came to 31.3 nM. Also, in experiment [2], the inhibition at 0.05 µM stood at 45% and the Ki was found to be 11.4 nM.

For the molecule `CNC(=O)c1c(C)n(C)c2cc(Oc3ccnc4cc(C(=O)N5CC[C@@H](NC)C5)sc34)ccc12` [Example 35, 1,2-Dimethyl-6-[2-(3-methylamino-pyrrolidine-1-carbonyl)-thieno[3,2-b]pyridin-7-yloxy]-1H-indole-3-carboxylic acid methylamide], in experiment [1], the half-inhibitory concentration (IC50) came out at 70 nM. In experiment [2], the inhibition at 0.05 µM is 23% and the affinity corresponds to a Ki of 35.2 nM.

Consider `CCc1c(C(=O)NC)c2ccc(Oc3ccnc4cc(-c5nccn5C)sc34)cc2n1C` [Example 74, 2-Ethyl-1-methyl-6-[2-(1-methyl-1H-imidazol-2-yl)-thieno[3,2-b]pyridin-7-yloxy]-1H-indole-3-carboxylic acid methylamide], for which the IC50 in experiment [1] (setting [4]) was 313 nM. Also, in experiment [2], the inhibition at 0.05 µM is 43% and the affinity, expressed as Ki, was 12.7 nM.

For `CO[C@@H]1CCN(C(=O)c2cc3nccc(Oc4ccc5c(C(=O)NCCO)c(C)oc5c4)c3s2)C1` [Example 93, 6-[2-(3-Methoxy-pyrrolidine-1-carbonyl)-thieno[3,2-b]pyridin-7-yloxy]-2-methyl-benzofuran-3-carboxylic acid 2-hydroxyethyl amide], in experiment [1] (setting [4]), the IC50 turned out to be 44 nM. For the same molecule, in experiment [2], the inhibition at 0.05 µM stood at 84% and the Ki was 2.72 nM.

Regarding `CNC(=O)c1c(C)oc2cc(Oc3ccnc4ccsc34)ccc12` [Example 99, 6-[Thieno(3,2-b)pyridin-7-yloxy]-2-methyl-benzofuran-3-carboxylic acid methyl amide], the IC50 in experiment [1] (setting [4]) is 563 nM. Further, in experiment [2], the inhibition at 0.05 µM is 66% and the inhibition constant Ki is 4.68 nM.

Consider `Cc1oc2cc(Oc3ccnc4ccsc34)ccc2c1C(=O)NCCN1CCOCC1` [Example 103, 2-Methyl-6-[thieno[3,2-b]pyridin-7-yloxy]benzofuran-3-carboxylic acid (2-morpholin-4-yl-ethyl)-amide], for which the IC50 in experiment [1] (setting [4]) worked out at 203 nM. Also, in experiment [2], the inhibition at 0.05 µM worked out at 52% and the affinity, expressed as Ki, was 7 nM.

In the case of `CCCCNC(=O)c1c(C)oc2cc(Oc3ccnc4ccsc34)ccc12` [Example 105, 2-Methyl-6-[Thieno(3,2-b)pyridin-7-yloxy]benzofuran-3-carboxylic acid butyl amide], the IC50 in experiment [1] (setting [4]) is 127 nM. In experiment [2], the inhibition at 0.05 µM worked out at 61% and the Ki turned out to be 8.37 nM.

For the molecule `CNC(=O)c1c(C)sc2cc(Oc3ccnc4cc(COCCN5CCCC5)sc34)ccc12` [Example 114, 2-Methyl-6(2-[2-(pyrrolidin-1-yl)ethoxymethyl]thieno[3,2-b]pyridin-7-yloxy)benzo[b]thiophene-3-carboxylic acid methylamide], in experiment [2], the inhibition at 0.05 µM came to 16% and the Ki came out at 119 nM.

Take `CNC(=O)c1c(C)sc2cc(Oc3ccnc4cc(CN5CCCC5)sc34)ccc12` [Example 115, 2-Methyl-6-(2-[pyrrolidin-1-ylmethyl]thieno[3,2-b]pyridin-7-yloxy)benzo[b]thiophene-3-carboxylic acid methylamide]: the inhibition at 0.05 µM in experiment [2] worked out at 4%.

In the case of `CNC(=O)c1c(C)sc2cc(Oc3ccnc4cc(CN(C)C)sc34)ccc12` [Example 116, 6-(2-[Dimethylaminomethyl]thieno[3,2-b]pyridin-7-yloxy)-2-methylbenzo[b]thiophene-3-carboxylic acid methylamide], the inhibition at 0.05 µM in experiment [2] is 4%.

`COC[C@@H]1CCCN1C(=O)c1cc2nccc(Oc3ccc4c(C(=O)NCCCO)c(C)sc4c3)c2s1` [Example 122, 6-[(2-{[(2S)-2-(Methoxymethyl)pyrrolidin-1-yl]carbonyl}thieno[3,2-b]pyridin-7-yl)oxy]-2-methylbenzo[b]thiophene-3-carboxylic acid 3-hydroxypropylamide]: in experiment [1] (setting [4]), the IC50 stood at 351 nM. Further, in experiment [2], the inhibition at 0.05 µM was 58% and the affinity, expressed as Ki, was 5.14 nM.

On to `Cc1sc2cc(Oc3ccnc4ccsc34)ccc2c1C(=O)NCCN1CCOCC1` [Example 133, 2-Methyl 6-(thieno[3,2-b]pyridin-7-yloxy)benzo[b]thiophene-3-carboxylic acid (2-morpholin-4-yl)ethylamide], for which the IC50 in experiment [1] (setting [4]) was 468 nM. Moreover, in experiment [2], the inhibition at 0.05 µM came to 40% and the inhibition constant Ki came to 5.9 nM.

`Cc1cc2nccc(Oc3ccc4c(C(=O)NCCN5CCOCC5)c(C)sc4c3)c2s1` [Example 139, 2-Methyl-6-(2-methylthieno[3,2-b]pyridin-7-yloxy)benzo[b]thiophene-3-carboxylic acid (2-morpholin-4-yl-ethyl)-amide]: the inhibition at 0.05 µM in experiment [2] is 40%.

Turning to `Cc1cc2nccc(Oc3ccc4c(C(=O)NCCCN5CCOCC5)c(C)sc4c3)c2s1` [Example 140, 2-Methyl-6-(2-methylthieno[3,2-b]pyridin-7-yloxy)benzo[b]thiophene-3-carboxylic acid (3-morpholin-4ylpropyl)-amide], the inhibition at 0.05 µM in experiment [2] turned out to be 90%.

Take `Cc1oc2cc(Oc3ccnc4ccsc34)ccc2c1C(=O)NCCN1CCOCC1` [drawing 310]: the IC50 in experiment [1] (setting [3]) came to 50 nM.
